The values that follow come from ChEMBL document CHEMBL2062364, “Discovery and optimization of new benzimidazole- and benzoxazole-pyrimidone selective PI3Kβ inhibitors for the treatment of phosphatase and TENsin homologue (PTEN)-deficient cancers” (J Med Chem, 2012).

For data set [1], the target named is T1, Phosphatidylinositol 4,5-bisphosphate 3-kinase catalytic subunit beta isoform (Homo sapiens, UniProt P42338). Kind of data set: Inhibition of human PI3Kbeta-mediated Akt phosphorylation at Ser473 residue expressed in PTEN-deficient human PC3 cells by chemiluminescence assay. The class given is cell-based, PC-3.
T1 sequence (P42338 whole entry, canonical isoform): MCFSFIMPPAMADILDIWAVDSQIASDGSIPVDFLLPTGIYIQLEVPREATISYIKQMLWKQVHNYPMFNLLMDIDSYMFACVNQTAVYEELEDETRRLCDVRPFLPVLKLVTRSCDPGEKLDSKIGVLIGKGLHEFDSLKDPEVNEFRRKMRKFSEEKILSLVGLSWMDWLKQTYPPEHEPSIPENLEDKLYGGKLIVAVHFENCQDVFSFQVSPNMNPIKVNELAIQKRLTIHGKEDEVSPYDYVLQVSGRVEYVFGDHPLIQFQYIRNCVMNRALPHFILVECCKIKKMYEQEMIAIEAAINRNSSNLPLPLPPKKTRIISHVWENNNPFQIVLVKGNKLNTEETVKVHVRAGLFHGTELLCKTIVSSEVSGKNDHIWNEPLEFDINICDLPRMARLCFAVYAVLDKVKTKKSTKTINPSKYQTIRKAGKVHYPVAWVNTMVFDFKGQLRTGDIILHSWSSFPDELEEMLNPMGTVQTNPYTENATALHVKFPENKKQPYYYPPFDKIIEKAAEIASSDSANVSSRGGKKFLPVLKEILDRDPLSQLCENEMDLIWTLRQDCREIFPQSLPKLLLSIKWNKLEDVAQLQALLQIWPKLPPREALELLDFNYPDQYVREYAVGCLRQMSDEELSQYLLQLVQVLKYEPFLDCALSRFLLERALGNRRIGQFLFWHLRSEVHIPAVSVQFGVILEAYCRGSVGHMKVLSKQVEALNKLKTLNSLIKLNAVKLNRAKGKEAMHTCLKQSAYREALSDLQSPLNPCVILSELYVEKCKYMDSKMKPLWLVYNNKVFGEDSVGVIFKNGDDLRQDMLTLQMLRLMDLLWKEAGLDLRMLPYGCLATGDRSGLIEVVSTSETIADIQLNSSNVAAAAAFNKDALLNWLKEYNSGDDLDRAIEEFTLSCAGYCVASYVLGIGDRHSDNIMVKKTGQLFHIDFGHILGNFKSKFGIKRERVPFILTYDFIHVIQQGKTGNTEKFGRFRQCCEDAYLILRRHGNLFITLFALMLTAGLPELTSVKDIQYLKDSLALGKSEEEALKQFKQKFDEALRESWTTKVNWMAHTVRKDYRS
In data set [2] the target is Phosphatidylinositol 4,5-bisphosphate 3-kinase catalytic subunit alpha isoform (Homo sapiens, UniProt P42336). Kind of data set: Inhibition of N-terminus poly-His tagged human PI3Kalpha expressed in baculovirus infected insect sf9 cells coexpressing p85alpha using PI(4,5)P2 as substrate preincubated with compound for 15 mins measured after 10 mins by HTRF assay. (Time-resolved FRET reads energy transfer from a long-lived donor to a nearby acceptor.)
Chain of Phosphatidylinositol 4,5-bisphosphate 3-kinase catalytic subunit alpha isoform (P42336 whole entry, canonical isoform): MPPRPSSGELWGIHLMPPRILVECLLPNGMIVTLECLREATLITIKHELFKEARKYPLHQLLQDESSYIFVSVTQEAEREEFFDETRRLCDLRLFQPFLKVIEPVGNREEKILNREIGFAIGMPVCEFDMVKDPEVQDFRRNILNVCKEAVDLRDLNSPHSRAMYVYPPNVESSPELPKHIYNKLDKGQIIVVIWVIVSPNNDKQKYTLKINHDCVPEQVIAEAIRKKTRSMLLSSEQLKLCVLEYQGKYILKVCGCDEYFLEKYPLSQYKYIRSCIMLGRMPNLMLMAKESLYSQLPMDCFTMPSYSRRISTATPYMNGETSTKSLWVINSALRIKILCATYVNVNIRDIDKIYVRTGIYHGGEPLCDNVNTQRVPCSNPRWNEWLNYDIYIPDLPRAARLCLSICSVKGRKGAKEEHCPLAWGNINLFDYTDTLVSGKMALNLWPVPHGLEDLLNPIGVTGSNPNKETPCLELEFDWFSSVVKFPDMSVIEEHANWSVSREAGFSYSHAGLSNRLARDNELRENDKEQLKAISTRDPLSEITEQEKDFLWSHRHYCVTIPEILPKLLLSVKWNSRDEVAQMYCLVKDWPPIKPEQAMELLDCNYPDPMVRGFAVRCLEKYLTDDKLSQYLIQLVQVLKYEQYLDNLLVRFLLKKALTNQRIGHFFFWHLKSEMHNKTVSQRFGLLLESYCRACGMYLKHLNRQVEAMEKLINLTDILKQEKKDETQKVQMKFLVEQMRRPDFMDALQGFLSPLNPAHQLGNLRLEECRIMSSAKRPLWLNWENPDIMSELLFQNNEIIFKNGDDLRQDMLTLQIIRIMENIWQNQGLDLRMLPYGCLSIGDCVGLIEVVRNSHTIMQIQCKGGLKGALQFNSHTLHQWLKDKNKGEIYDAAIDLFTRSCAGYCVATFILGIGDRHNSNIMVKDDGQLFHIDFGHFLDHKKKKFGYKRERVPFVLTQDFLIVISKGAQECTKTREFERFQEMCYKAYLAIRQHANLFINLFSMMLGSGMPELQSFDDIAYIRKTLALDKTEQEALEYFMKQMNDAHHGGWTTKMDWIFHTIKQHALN

Data set [3] concerns the target T1, Phosphatidylinositol 4,5-bisphosphate 3-kinase catalytic subunit beta isoform. Kind of data set: Inhibition of N-terminus poly-His tagged human PI3Kbeta expressed in baculovirus infected insect […] cells coexpressing p85alpha using PI(4,5)P2 as substrate preincubated with compound for 15 mins measured after 10 mins by HTRF assay.
Data set [4] has as its target T2, Phosphatidylinositol 4,5-bisphosphate 3-kinase catalytic subunit delta isoform (Homo sapiens, UniProt O00329).
T2 sequence (O00329 whole entry): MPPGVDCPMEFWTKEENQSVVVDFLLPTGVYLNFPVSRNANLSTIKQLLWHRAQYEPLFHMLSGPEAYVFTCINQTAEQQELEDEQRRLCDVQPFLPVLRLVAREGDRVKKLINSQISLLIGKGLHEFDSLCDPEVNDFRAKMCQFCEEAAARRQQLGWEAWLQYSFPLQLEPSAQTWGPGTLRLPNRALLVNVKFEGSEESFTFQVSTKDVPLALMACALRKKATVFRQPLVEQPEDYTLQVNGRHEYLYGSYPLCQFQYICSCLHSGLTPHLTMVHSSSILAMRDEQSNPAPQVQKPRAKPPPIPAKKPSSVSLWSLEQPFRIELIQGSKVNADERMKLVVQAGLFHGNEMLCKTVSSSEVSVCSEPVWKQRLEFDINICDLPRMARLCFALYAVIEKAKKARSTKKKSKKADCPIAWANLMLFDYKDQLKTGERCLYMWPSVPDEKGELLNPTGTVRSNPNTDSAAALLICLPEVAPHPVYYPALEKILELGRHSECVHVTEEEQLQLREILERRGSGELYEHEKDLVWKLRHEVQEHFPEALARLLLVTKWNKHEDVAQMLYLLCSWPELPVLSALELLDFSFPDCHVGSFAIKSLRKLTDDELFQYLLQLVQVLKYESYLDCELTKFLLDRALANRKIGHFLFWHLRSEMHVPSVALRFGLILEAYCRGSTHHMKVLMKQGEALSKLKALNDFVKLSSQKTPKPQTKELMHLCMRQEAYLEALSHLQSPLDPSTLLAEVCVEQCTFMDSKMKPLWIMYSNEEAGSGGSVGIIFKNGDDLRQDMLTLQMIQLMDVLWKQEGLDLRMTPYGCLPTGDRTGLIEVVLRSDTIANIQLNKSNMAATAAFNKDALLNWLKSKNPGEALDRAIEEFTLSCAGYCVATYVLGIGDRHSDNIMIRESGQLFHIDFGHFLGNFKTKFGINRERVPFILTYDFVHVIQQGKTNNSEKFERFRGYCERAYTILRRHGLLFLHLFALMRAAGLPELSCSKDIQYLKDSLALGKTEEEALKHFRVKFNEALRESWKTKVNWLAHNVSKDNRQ
Kind of data set: Inhibition of poly-His tagged human PI3Kdelta expressed in baculovirus infected insect sf9 cells coexpressing p85alpha using PI(4,5)P2 as substrate preincubated with compound for 15 mins measured after 10 mins by HTRF assay.

Data set [5] concerns the target Phosphatidylinositol 4,5-bisphosphate 3-kinase catalytic subunit gamma isoform (Homo sapiens, UniProt P48736). Kind of data set: Inhibition of N-terminus poly-His tagged human PI3Kgamma expressed in baculovirus infected insect sf9 cells using PI(4,5)P2 as substrate preincubated with compound for 15 mins measured after 10 mins by HTRF assay.
In data set [6] the target is Serine/threonine-protein kinase mTOR (Homo sapiens, UniProt P42345). Kind of data set: Inhibition of mTOR.
Data set [7] in a line: Apparent permeability of the compound across human Caco2 cells. The class given is ADME, cell-based. The note with it: Caco-2. Background: Caco-2 monolayers are a common model of the intestinal barrier.
Data set [8] concerns the target Cytochrome P450 3A4 (Homo sapiens, UniProt P08684). Kind of data set: Inhibition of human recombinant CPY3A4.
The nature of data set [9]: Drug metabolism in human liver microsomes. Also: time not given here. The class given is ADME, Microsome. To be noted: read-out: Drug metabolism.
The nature of data set [10]: Drug metabolism in mouse liver microsomes. Also: time not given here. The class given is ADME, Microsome. To be noted: read-out: Drug metabolism.

Chain of Phosphatidylinositol 4,5-bisphosphate 3-kinase catalytic subunit gamma isoform (P48736 whole entry, canonical isoform): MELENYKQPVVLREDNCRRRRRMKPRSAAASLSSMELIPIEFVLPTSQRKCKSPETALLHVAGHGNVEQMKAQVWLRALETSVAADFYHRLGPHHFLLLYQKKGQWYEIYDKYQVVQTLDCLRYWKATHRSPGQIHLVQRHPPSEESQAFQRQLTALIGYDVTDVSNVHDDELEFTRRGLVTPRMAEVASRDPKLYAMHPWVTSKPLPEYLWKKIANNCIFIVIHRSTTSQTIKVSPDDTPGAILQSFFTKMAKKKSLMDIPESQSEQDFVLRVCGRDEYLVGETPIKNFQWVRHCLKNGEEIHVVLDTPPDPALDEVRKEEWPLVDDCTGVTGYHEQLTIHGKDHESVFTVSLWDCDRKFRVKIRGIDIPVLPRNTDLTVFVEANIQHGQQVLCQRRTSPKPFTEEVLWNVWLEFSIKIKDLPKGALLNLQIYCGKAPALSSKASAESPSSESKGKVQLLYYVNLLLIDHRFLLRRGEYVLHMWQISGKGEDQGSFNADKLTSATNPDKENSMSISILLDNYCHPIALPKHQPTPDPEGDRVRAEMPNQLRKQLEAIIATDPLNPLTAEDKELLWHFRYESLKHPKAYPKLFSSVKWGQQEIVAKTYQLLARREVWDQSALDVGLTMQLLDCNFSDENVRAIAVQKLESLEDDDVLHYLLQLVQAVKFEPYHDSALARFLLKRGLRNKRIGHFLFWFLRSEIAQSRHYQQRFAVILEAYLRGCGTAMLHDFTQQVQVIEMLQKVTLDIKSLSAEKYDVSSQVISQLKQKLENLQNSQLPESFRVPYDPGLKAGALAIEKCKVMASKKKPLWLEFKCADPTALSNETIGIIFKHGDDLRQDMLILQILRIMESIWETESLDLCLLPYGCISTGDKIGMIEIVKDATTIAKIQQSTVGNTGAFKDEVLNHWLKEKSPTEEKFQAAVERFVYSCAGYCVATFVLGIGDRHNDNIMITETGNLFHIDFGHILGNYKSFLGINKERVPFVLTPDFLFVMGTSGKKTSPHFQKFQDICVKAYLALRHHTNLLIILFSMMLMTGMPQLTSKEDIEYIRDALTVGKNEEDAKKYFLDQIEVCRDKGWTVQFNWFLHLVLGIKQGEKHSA
Chain of Cytochrome P450 3A4 (P08684 whole entry): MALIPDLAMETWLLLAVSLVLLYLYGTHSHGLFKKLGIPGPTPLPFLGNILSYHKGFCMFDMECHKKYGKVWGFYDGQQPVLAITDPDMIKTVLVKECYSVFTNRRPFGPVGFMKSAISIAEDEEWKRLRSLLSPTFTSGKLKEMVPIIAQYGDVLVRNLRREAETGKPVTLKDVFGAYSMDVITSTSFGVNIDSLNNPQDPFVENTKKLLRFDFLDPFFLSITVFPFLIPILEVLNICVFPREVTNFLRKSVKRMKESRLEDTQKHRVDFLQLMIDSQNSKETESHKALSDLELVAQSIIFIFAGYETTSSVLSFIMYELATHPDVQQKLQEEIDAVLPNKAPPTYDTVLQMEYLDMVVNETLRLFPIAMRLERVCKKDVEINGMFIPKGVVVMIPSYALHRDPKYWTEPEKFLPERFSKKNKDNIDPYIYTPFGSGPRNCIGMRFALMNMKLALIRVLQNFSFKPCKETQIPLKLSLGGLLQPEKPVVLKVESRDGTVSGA

In general, IC50 refers to the concentration at which inhibition is half-maximal. Regarding `Cc1cc(F)ccc1Oc1cccc2c(=O)cc(N3CCOCC3)[nH]c12`, the IC50 in data set [1] is 0.072 µM; in [2] it was greater than 10 µM; in data set [3], 0.032 µM; in [4] it was 0.166 µM; in data set [5] it was greater than 10 µM.

Take `O=c1cc(N2CCOCC2)nc(Cc2nc3ccccc3[nH]2)[nH]1`: the IC50 in data set [1] is 0.665 µM; in data set [2], greater than 10 µM; in data set [3], 0.158 µM; in data set [4], 2.87 µM; in [5] it was greater than 10 µM; in data set [6] it was greater than 10 µM.

With `Cn1c(Cc2nc3cc(F)ccc3[nH]2)nc(N2CCOCC2)cc1=O`, the IC50 in data set [2] was greater than 10 µM; in data set [3] it was 0.739 µM; in data set [4], 5.72 µM; in [5], greater than 10 µM; in [6] it was greater than 10 µM.

`Cn1c(Cc2nc(N3CCOCC3)cc(=O)[nH]2)nc2ccc(F)cc21`: the IC50 in data set [1] is 0.289 µM; in data set [2] it was greater than 10 µM; in [3], 0.29 µM; in data set [4], 1.06 µM; in data set [5], greater than 10 µM; in data set [6], greater than 10 µM.

As to `Cc1ccc2[nH]c(Cc3nc(N4CCOCC4)cc(=O)[nH]3)nc2c1`, the IC50 in data set [1] was 0.14 µM; in data set [2], 9.88 µM; in data set [3], 0.45 µM; in [4] it was 2.21 µM; in data set [5] it was greater than 10 µM; in data set [6], greater than 10 µM.

Regarding `COc1ccc2[nH]c(Cc3nc(N4CCOCC4)cc(=O)[nH]3)nc2c1`, the IC50 is 0.475 µM in data set [1]; greater than 10 µM in data set [2]; 0.193 µM in data set [3]; 0.397 µM in [4]; greater than 10 µM in data set [5]; greater than 10 µM in [6].

Take `O=c1cc(N2CCOCC2)nc(Cc2nc3ccc(C(F)(F)F)cc3[nH]2)[nH]1`: the half-maximal inhibitory concentration (IC50) is 0.961 µM in data set [1]; greater than 10 µM in [2]; 0.386 µM in [3]; 2.85 µM in data set [4]; greater than 10 µM in data set [5]; greater than 10 µM in data set [6].

For orientation: Papp means a coefficient for how fast a substance crosses the barrier. In the case of `O=c1cc(N2CCOCC2)nc(Cc2nc3cc(F)ccc3n2C2CC2)[nH]1`, the IC50 in data set [1] was 0.009 µM; in data set [2], greater than 10 µM; in [3] it was 0.029 µM; in data set [4] it was 0.036 µM; in data set [5], greater than 10 µM; in data set [6], greater than 10 µM. Also, the IC50 in [8] was greater than 40 µM. Further, the Papp in data set [7] stood at 2.2 ×10⁻⁶ cm/s. For the same molecule, the metabolised in data set [9] and in data set [10] was 99% in each case.

Take `COCCn1c(Cc2nc(N3CCOCC3)cc(=O)[nH]2)nc2cc(F)ccc21`: the IC50 was 0.109 µM in data set [1]; greater than 10 µM in [2]; 0.205 µM in data set [3]; 0.27 µM in [4]; greater than 10 µM in [5]; greater than 10 µM in data set [6].

Take `O=c1cc(N2CCOCC2)nc(Cc2nc3ccccc3n2C2CCCCC2)[nH]1`: the IC50 in data set [1] is 0.142 µM; in data set [2], 8.4 µM; in [3], 0.09 µM; in data set [4] it was 0.021 µM; in data set [5], greater than 10 µM; in data set [6], greater than 10 µM. Besides, the IC50 in data set [8] was greater than 40 µM. Further, the Papp in [7] came to 1.5 ×10⁻⁶ cm/s. Further, the metabolised in data set [9] came out at 97%; in [10] it was 96%.

With `O=c1cc(N2CCOCC2)nc(Cc2nc3ccccc3n2Cc2ccccc2)[nH]1`, the IC50 in data set [1] was 0.105 µM; in data set [2] it was 5.72 µM; in data set [3], 0.111 µM; in data set [4], 0.084 µM; in data set [5], greater than 10 µM; in data set [6], greater than 10 µM.

Regarding `Cn1c(Cc2nc(N3CCOCC3)cc(=O)[nH]2)nc2cc(-c3ccccc3)ccc21`, the IC50 in [2] is greater than 10 µM; in [3], greater than 10 µM; in [4] it was 6.75 µM; in data set [5], greater than 10 µM; in data set [6], greater than 10 µM.

As to `Cn1c(Cc2nc(N3CCOCC3)cc(=O)[nH]2)nc2ccc(-c3ccccc3)cc21`, the IC50 is 7.8 µM in data set [2]; 3.41 µM in data set [3]; 3.41 µM in data set [4]; greater than 10 µM in data set [5]; greater than 10 µM in data set [6].

With `O=c1cc(N2CCOCC2)nc(Cc2nc3c(F)cccc3o2)[nH]1`, the IC50 in data set [1] was 0.125 µM; in [2] it was greater than 10 µM; in data set [3], 0.567 µM; in data set [4], 8.45 µM; in data set [5], greater than 10 µM; in [6] it was greater than 10 µM.

With `O=c1cc(N2CCOCC2)nc(Cc2nc3ccc(F)cc3o2)[nH]1`, the IC50 in data set [1] is 0.049 µM; in data set [2] it was greater than 10 µM; in data set [3] it was 0.126 µM; in data set [4] it was 9.04 µM; in data set [5], greater than 10 µM; in [6], greater than 10 µM.

For `O=c1cc(N2CCOCC2)nc(Cc2nc3cccc(F)c3o2)[nH]1`, the IC50 in data set [1] was 0.088 µM; in [2], greater than 10 µM; in data set [3] it was 0.373 µM; in data set [4], 2.56 µM; in data set [5], greater than 10 µM; in data set [6], greater than 10 µM.

In the case of `Cn1c(Cc2nc3ccccc3o2)nc(N2CCOCC2)cc1=O`, the IC50 in data set [2] was greater than 10 µM; in data set [3] it was 1.33 µM; in [6], greater than 10 µM.

For the molecule `Cc1cccc2oc(Cc3nc(N4CCOCC4)cc(=O)[nH]3)nc12`, the IC50 was 0.075 µM in [1]; greater than 10 µM in data set [2]; 0.461 µM in data set [3]; 2.75 µM in data set [4]; 3.33 µM in [5]; greater than 10 µM in [6].

On to `Cc1ccc2oc(Cc3nc(N4CCOCC4)cc(=O)[nH]3)nc2c1`, for which the IC50 in data set [1] is 0.233 µM; in [2] it was greater than 10 µM; in data set [3], 0.96 µM; in [6], greater than 10 µM.

Turning to `Cc1ccc2nc(Cc3nc(N4CCOCC4)cc(=O)[nH]3)oc2c1`, the IC50 in data set [1] was 0.143 µM; in data set [2], 9.77 µM; in [3], 0.526 µM; in [4] it was 1.14 µM; in data set [5] it was greater than 10 µM; in [6], greater than 10 µM.

As for `Cc1cccc2nc(Cc3nc(N4CCOCC4)cc(=O)[nH]3)oc12`, the 50% inhibitory concentration (IC50) in data set [1] is 0.202 µM; in data set [2], 7.15 µM; in data set [3] it was 0.425 µM; in [4], 2.38 µM; in data set [5], greater than 10 µM; in data set [6] it was greater than 10 µM.

As to `O=c1cc(N2CCOCC2)nc(Cc2nc3c(Br)cccc3o2)[nH]1`, the 50% inhibitory concentration (IC50) is 0.127 µM in data set [1]; greater than 10 µM in data set [2]; 0.585 µM in data set [3]; 2.27 µM in [4]; greater than 10 µM in [5]; greater than 10 µM in [6].

As to `O=c1cc(N2CCOCC2)nc(Cc2nc3c(-c4ccccn4)cccc3o2)[nH]1`, the IC50 in data set [1] is 0.113 µM; in data set [2] it was 3.33 µM; in [3] it was 0.336 µM; in data set [4], 2.17 µM; in data set [5] it was greater than 10 µM; in data set [6] it was greater than 10 µM.

On to `O=c1cc(N2CCOCC2)nc(Cc2nc3c(-c4cccnc4)cccc3o2)[nH]1`, for which the IC50 is 0.044 µM in [1]; greater than 10 µM in data set [2]; 0.156 µM in [3]; 0.335 µM in data set [4]; greater than 10 µM in data set [5]; greater than 10 µM in data set [6].

With `O=c1cc(N2CCOCC2)nc(Cc2nc3c(-c4ccncc4)cccc3o2)[nH]1`, the IC50 is 0.047 µM in [1]; greater than 10 µM in data set [2]; 0.158 µM in data set [3]; 0.995 µM in [4]; greater than 10 µM in data set [5]; greater than 10 µM in data set [6].

For `O=C(Cc1nc(N2CCOCC2)cc(=O)[nH]1)Nc1ccccc1`, the IC50 in data set [2] was 2.13 µM; in [3], 0.042 µM; in [4] it was 0.118 µM; in data set [5], greater than 10 µM; in [6], greater than 10 µM.
